Assay results published in publication PMC7529893, “Structural basis for substrate recognition and chemical inhibition of oncogenic MAGE ubiquitin ligases” (Nature Communications, 2020).
Peptide text beside a SMILES is read from it.

Target: T1, GST-MAGE-A11 MHD (Homo sapiens, UniProt P43364)
T1 construct: GST-MAGE-A11 MHD (human MAGE-A11 MHD amino acid 218-429); made in house; host or cells: E. coli BL21(DE3)
T1 sequence (P43364 218-429): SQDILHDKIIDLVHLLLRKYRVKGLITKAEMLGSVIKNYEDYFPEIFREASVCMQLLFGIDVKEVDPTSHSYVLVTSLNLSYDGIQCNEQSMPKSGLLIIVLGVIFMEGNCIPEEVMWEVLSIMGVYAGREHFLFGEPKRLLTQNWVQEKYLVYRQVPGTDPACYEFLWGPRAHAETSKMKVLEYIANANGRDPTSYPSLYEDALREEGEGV
Experiment: TR-FRET competition assay of PCF11 peptides against GST-MAGE-A11 MHD / FAM-PCF11_4
Conditions: Fig. 1c, panel of eight PCF11 peptides; read-out: IC50, binding of PCF11 peptide to GST-MAGE-A11 by TR-FRET
Protocol: The TR-FRET assay buffer with a formula of 50 mM Tris pH 7.5, 20 mM MgCl2, 0.1 mg/ml BSA and 1 mM DTT was freshly prepared before each experiment. All TR-FRET assays were performed in black 384-well plates with 20 µl/well assay volume in the TR-FRET assay buffer at room temperature (~25 °C). All peptides or compounds were solubilized in DMSO. To test the competitive activity of peptides or compounds against the interaction between GST-MAGE-A11 MHD and FAM-PCF11_4 peptide, 10 µl/well peptide or compound at specified concentration was dispensed into a black 384-well low volume plate, followed by 5 µl/well FAM-PCF11_4 (800 nM), 5 µl/well Tb-anti-GST (20 nM), and GST-MAGE-A11 MHD (20 nM). The assay components in each well was then mixed by shaking the plate on an IKA MTS 2/4 digital microtiter plate shaker (IKA Works; Wilmington, NC, USA) for 1 min. The plate was further centrifuged in an Eppendorf 5810 centrifuge with an A-4-62 swing-bucket rotor (Eppendorf AG, Hamburg, Germany) at 201 g for 30 s. The plate was then incubated for 90 min with a lid to avoid light exposure to the assay components. After incubation, the fluorescent emission signals at 520 nm and 490 nm channels of individual wells were measured with a PHERAstar FS plate reader (BMG Labtech; Durham, NC, USA) by using a 340 nm excitation filter, 100 µs delay time, and 200 µs integration time. The TR-FRET fluorescence emission ratio (TR-FRET signal) for each well was presented as 10,000 × 520 nm/490 nm, which was used directly for curve fitting, or further converted to %Inhibition based on the respective positive and negative controls. The graphic software GraphPad Prism 4.81 (GraphPad Software; La Jolla, CA, USA) was used to generate curves and derive IC50 values of tested peptides or compounds, if applicable.
TR-FRET inhibitory activity characterization of a panel of PCF11 peptides against the interaction between GST-MAGE-A11 MHD and FAM-PCF11_4 was performed as follows. In a 20-µl/well assay volume, dilutions of PCF11_1 to PCF11_8 peptides (concentrations ranged from 3.1 nM to 100 µM for peptides PCF11_4, PCF11_5, PCF11_6 and PCF11_8 in a 1-to-2 dilution pattern for 16 concentration levels, and ranged from 48.9 nM to 100 µM for peptides of PCF11_1, PCF11_2, PCF11_3, and PCF11_7 in a 1-to-2 dilution pattern for 12 concentration levels), 200 nM FAM-PCF11_4, 5 nM Tb-anti-GST and 5 nM GST-MAGE-A11 were mixed together and incubated for 90 min before the TR-FRET signal for each well was measured. The final DMSO concentration was 1.1% (v/v). […] The signal of each peptide-treated well (Signalpeptide) was normalized to the positive and negative controls to derive %inhibition of the peptide at a specific concentration with Eq. (1). Where applicable, the %Inhibition data were fit into a Sigmoidal dose response equation to derive IC50 values.1 %Inhibition=100%−100%×(Signalpeptide−SignalDMSOwithoutGST-MAGEA11)/SignalDMSO−SignalDMSOwithoutGST-MAGEA11.

| Compound | IC50 |
| --- | --- |
| CC(C)C[C@H](NC(=O)[C@H](CC(C)C)NC(=O)[C@H](CCC(=O)O)NC(=O)[C@H](CCCNC(=N)N)NC(=O)[C@H](CCCCN)NC(=O)[C@H](CO)NC(=O)[C@H](C)NC(=O)[C@H](CC(C)C)NC(=O)[C@@H](NC(=O)[C@H](CC(C)C)NC(=O)[C@H](CCC(=O)O)NC(=O)[C@H](CCCCN)NC(=O)[C@@H]1CCCN1)[C@@H](C)O)C(=O)N[C@@H](CCC(N)=O)C(=O)N[C@@H](CCCCN)C(=O)O [PCF11_1] (H-PKELTLASKRELLQK-OH; N-terminus assumed) | > 50000 nM |
| CC[C@H](C)[C@H](NC(=O)[C@H](CCC(=O)O)NC(=O)CNC(=O)[C@H](CO)NC(=O)[C@H](C)NC(=O)[C@H](CC(C)C)NC(=O)[C@H](CCCNC(=N)N)NC(=O)[C@H](CCC(=O)O)NC(=O)[C@H](CO)NC(=O)[C@@H](NC(=O)[C@H](CCCCN)NC(=O)[C@H](CCC(N)=O)NC(=O)[C@H](CC(C)C)NC(=O)[C@@H](N)CC(C)C)[C@@H](C)O)C(=O)N[C@H](C(=O)O)[C@@H](C)O [PCF11_2] (H-LLQKTSERLASGEIT-OH; N-terminus assumed) | > 50000 nM |
| CC[C@H](C)[C@H](NC(=O)[C@H](CCC(N)=O)NC(=O)[C@H](Cc1c[nH]cn1)NC(=O)[C@@H](NC(=O)[C@@H](NC(=O)[C@@H](NC(=O)[C@H](CC(C)C)NC(=O)[C@H](Cc1ccccc1)NC(=O)[C@H](CC(=O)O)NC(=O)[C@H](CC(=O)O)NC(=O)[C@H](CCC(N)=O)NC(=O)[C@@H](NC(=O)[C@@H](NC(=O)[C@H](CCC(=O)O)NC(=O)CN)[C@@H](C)CC)[C@@H](C)O)C(C)C)C(C)C)C(C)C)C(=O)O [PCF11_3] (H-GEITQDDFLVVVHQI-OH; N-terminus assumed) | > 50000 nM |
| CC[C@H](C)[C@H](N)C(=O)N[C@H](C(=O)N[C@@H](CCC(N)=O)C(=O)N[C@@H](CC(=O)O)C(=O)N[C@@H](CC(=O)O)C(=O)N[C@@H](Cc1ccccc1)C(=O)N[C@@H](CC(C)C)C(=O)N[C@H](C(=O)N[C@H](C(=O)N[C@H](C(=O)N[C@@H](Cc1c[nH]cn1)C(=O)N[C@@H](CCC(N)=O)C(=O)N[C@H](C(=O)N[C@@H](CCCNC(=N)N)C(=O)N[C@@H](CCC(N)=O)C(=O)N[C@@H](CC(C)C)C(=O)N[C@@H](Cc1ccccc1)C(=O)N[C@@H](CCC(N)=O)C(=O)N[C@@H](Cc1ccc(O)cc1)C(=O)N[C@@H](CCC(N)=O)C(=O)N[C@@H](CCC(=O)O)C(=O)NCC(=O)N[C@H](C(=O)N[C@@H](CCCNC(=N)N)C(=O)N[C@@H](CCC(=O)O)C(=O)O)C(C)C)[C@@H](C)CC)C(C)C)C(C)C)C(C)C)[C@@H](C)O [PCF11_4] (H-ITQDDFLVVVHQIRQLFQYQEGVRE-OH; N-terminus assumed) | 59 nM |
| CC[C@H](C)[C@H](NC(=O)[C@H](CCC(N)=O)NC(=O)[C@H](Cc1c[nH]cn1)NC(=O)[C@@H](NC(=O)[C@@H](NC(=O)[C@@H](NC(=O)[C@H](CC(C)C)NC(=O)[C@H](Cc1ccccc1)NC(=O)[C@H](CC(=O)O)NC(=O)[C@H](CC(=O)O)NC(=O)[C@@H](N)CCC(N)=O)C(C)C)C(C)C)C(C)C)C(=O)N[C@@H](CCCNC(=N)N)C(=O)N[C@@H](CCC(N)=O)C(=O)N[C@@H](CC(C)C)C(=O)N[C@@H](Cc1ccccc1)C(=O)N[C@@H](CCC(N)=O)C(=O)N[C@@H](Cc1ccc(O)cc1)C(=O)N[C@@H](CCC(N)=O)C(=O)N[C@@H](CCC(=O)O)C(=O)NCC(=O)O [PCF11_5] (H-QDDFLVVVHQIRQLFQYQEG-OH; N-terminus assumed) | 77 nM |
